Results published in patent publication US11111234B2, “Salt of a quinazoline derivative-like tyrosine kinase inhibitor and crystal form thereof” (Xuanzhu Pharma Co., Ltd., priority 2016, dated 2021).
Counter-ions that a name gives are not always drawn.

What was measured:
Format in all cases: physicochemical
[1] = Study on hygroscopicity (pharmaceutical hygroscopicity test, General Rule 9103 ChP 2015)
Procedure: measurement was performed in accordance with the Guidelines for pharmaceutical hygroscopicity test in General Rule 9103 of Pharmacopoeia of the People's Republic of China (2015) Volume IV.

[2] = Study on solubility (HPLC)
Procedure: measurement was performed in accordance with High Performance Liquid Chromatography in Appendix II V D in Pharmacopoeia of the People's Republic of China (2010) Volume II.

[3] = Study on stability (high temperature, high moisture, light; purity by HPLC and XRD); conditions: for XRD: compared with the XRD pattern at Day 0
Procedure: The Crystal form A of the maleate of the compound of Formula (1) and the hydrochloride of the compound of Formula (1) were kept at 70° C. for 3 d, and the samples were taken at Day 1 and Day 3, respectively, and were tested for purity and XRD, which were compared with those of the sample at Day 0.
The Crystal form A of the maleate of the compound of Formula (1) was kept under conditions of high moisture (25° C., RH92.5%) for 5 d, or under condition of light (4500LX±500LX) for 10 d, and was tested for purity and XRD, which were compared with those of the sample at Day 0.
Purity measurement: measurement was performed in accordance with High Performance Liquid Chromatography in Appendix II V D in Pharmacopoeia of the People's Republic of China (2010) Volume II.
XRD test: the same as described in Example 1.

Row | Compound | Hygroscopic weight gain(%) [1] [%] | solubility ([2]; H2O) [µg/mL] | solubility ([2]; pH of solution 1.0) [µg/mL] | solubility ([2]; pH of solution 4.5) [µg/mL] | solubility ([2]; pH of solution 6.5) [µg/mL] | solubility ([2]; pH of solution 7.4) [µg/mL] | purity (%) ([3]; 70° C., standing time 0 d) | purity (%) ([3]; 70° C., standing time 1 d) | purity (%) ([3]; 70° C., standing time 3 d) | also measured
1 | COc1cc2ncnc(Nc3ccc(F)c(Cl)c3)c2cc1NC(=O)/C=C/CN1CC2(CCC2)C1 [Crystal form A of the maleate of the compound of Formula (1)] [(E)-N-(4-((3-chloro-4-fluorophenyl)amino)-7-methoxylquinazolin-6-yl)-4-(2-azaspiro[3.3]heptan-2-yl)-2-butenamide] | 0.07 | 4411.5 | 20277.8 | 9748.4 | 89.1 | 68.9 | 98.4 | 98.0 | 97.4 | Hygroscopicity result [1]: No or almost no; hygroscopicity compared with the hydrochloride [1]: lower hygroscopicity; solubility compared with the hydrochloride ([2]; under various pH conditions): higher solubility; purity (%) ([3]; 25° C., RH92.5%, standing time 0 d): 98.6%; purity (%) ([3]; 25° C., RH92.5%, standing time 5 d): 98.4%; XRD ([3]; 70° C., 1 d): the same as; XRD ([3]; 70° C., 3 d): the same as; XRD ([3]; light 4500LX ± 500LX, 10 d): the same as; purity (%) ([3]; light 4500LX ± 500LX, standing time 0 d): 98.6%; purity (%) ([3]; light 4500LX ± 500LX, standing time 10 d): 98.4%; change in purity ([3]; light (4500LX±500LX) 10 d, high moisture (25° C., RH92.5%) 5 d, or high temperature (70° C.) 3 d): No apparent change in purity
2 | COc1cc2ncnc(Nc3ccc(F)c(Cl)c3)c2cc1NC(=O)/C=C/CN1CC2(CCC2)C1 [Hydrochloride of the compound of Formula (1)] [(E)-N-(4-((3-chloro-4-fluorophenyl)amino)-7-methoxylquinazolin-6-yl)-4-(2-azaspiro[3.3]heptan-2-yl)-2-butenamide] | 7.8 | 2200.6 | 3255.8 | 1883.0 | 17.6 | 11.2 | 98.4 | 92.5 | 89.0 | decrease in purity ([3]; high temperature (70° C.) for 3 d): 9.4%
